# Data: patent US9717708B1, “Process for preparing ertapenem-containing lyophilized formulation” (DAEWOONG PHARMACEUTICAL CO., LTD., priority 2014, dated 2017)
# Legend:
# [1] = Purity (HPLC) before and after lyophilization and during storage, lyophilized formulation containing meropenem trihydrate; format: physicochemical; conditions: lyophilized formulations containing meropenem
# Protocol: (§1) Hydroxypropyl β-cyclodextrin (HP-β-CD) [MS=0.65, 2.76 g (1.0 eq.)] was dissolved in distilled water (16 mL). After cooling the solution to 0˜5° C., 10 portions of ertapenem monosodium salt (1 g in total, each portion having the same amount) were sequentially added to the solution for 60 minutes, while maintaining pH 7.8 with a 2N NaOH solution. The resulting solution was sterile-filtered at 0˜5° C., filled in a vial, and then lyophilized as follows: The filled vial was located on the shelf of a lyophilizer pre-cooled to −40° C. and then cooled for 3 hours. Vacuum (80 mTorr) was applied to the shelf, which was then heated to −20° C. at the rate of 0.5° C./min. The shelf was maintained under the conditions of −20° C. and 80 mTorr for 48 hours. The shelf was heated to 10° C. at the rate of 0.1° C./min and then to 40° C. at the rate of 0.5° C./min. […]
# (§2) We evaluated whether or not hydroxypropyl β-cyclodextrin can also function both as a cryoprotective agent and as a stabilizing agent in the lyophilized formulations containing carbapenem antibiotics other than ertapenem. […] The purities before the lyophilization, the purities right after the lyophilization, and the purities of the lyophilized formulations which were respectively stored at low temperature (−20° C.), at room temperature, and under the accelerated (40° C., RH75%) condition for 4 weeks were respectively measured with a HPLC. […]
# [2] = Purity (HPLC) before and after lyophilization and during storage, lyophilized formulation containing doripenem monohydrate; format: physicochemical; conditions: lyophilized formulations containing doripenem
# Protocol: as §1, §2
SMILES,function of hydroxypropyl β-cyclodextrin as cryoprotective and stabilizing agent [1],function of hydroxypropyl β-cyclodextrin as cryoprotective and stabilizing agent [2]
"C[C@@H](O)[C@H]1C(=O)N2C(C(=O)O)=C(S[C@@H]3CN[C@H](C(=O)N(C)C)C3)[C@H](C)[C@H]12 [meropenem, meropenem trihydrate]",did not function as a cryoprotective agent nor as a stabilizing agent,–
"C[C@@H](O)[C@H]1C(=O)N2C(C(=O)O)=C(S[C@@H]3CN[C@H](CNS(N)(=O)=O)C3)[C@H](C)[C@H]12 [doripenem, doripenem monohydrate]",–,did not function as a cryoprotective agent nor as a stabilizing agent
